The target of assay [1] is T1, Free fatty acid receptor 3 (Homo sapiens, UniProt O14843).
T1 sequence (O14843 whole entry): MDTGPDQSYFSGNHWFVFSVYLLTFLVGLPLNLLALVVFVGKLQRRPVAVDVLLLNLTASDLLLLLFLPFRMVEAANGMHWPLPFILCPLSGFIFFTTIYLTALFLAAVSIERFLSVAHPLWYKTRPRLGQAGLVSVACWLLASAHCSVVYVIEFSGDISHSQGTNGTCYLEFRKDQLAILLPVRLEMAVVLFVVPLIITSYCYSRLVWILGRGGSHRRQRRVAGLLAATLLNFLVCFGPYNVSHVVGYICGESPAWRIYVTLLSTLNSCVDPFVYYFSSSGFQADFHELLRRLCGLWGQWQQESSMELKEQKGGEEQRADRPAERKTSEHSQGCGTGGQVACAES
As to the kind of experiment: Agonist activity at FFA3 (unknown origin) expressed in human Flp-In-293 cells assessed as inhibition of forskolin-stimulated cAMP accumulation incubated for 30 mins by Lance cAMP assay. The format is cell-based.

Assay [2] has as its target Hydroxycarboxylic acid receptor 2 (Homo sapiens, UniProt Q8TDS4). The assay can be described thus: Agonist activity at human HCA2 expressed in human Flp-In-293 cells assessed as inhibition of forskolin-stimulated cAMP accumulation incubated for 30 mins by Lance cAMP assay. The format is cell-based. (In general: Changes in cAMP serve as a functional read-out for many G protein-coupled receptors.)

Assay [3] relates to Escherichia coli. As to the kind of experiment: Antibacterial activity against Escherichia coli MTCC 723 assessed as diameter of inhibition zone at 0.1 mg/ml incubated for 24 hrs by agar well diffusion method. The format is functional. The conditions noted are these: read-out: DIZ.
The test system of assay [4] is Staphylococcus aureus. As to the kind of experiment: Antibacterial activity against Staphylococcus aureus NCTC-7447 assessed as diameter of inhibition zone incubated for 24 hrs by disc diffusion method. The format is functional. (In general: A growth-free zone around the sample is the usual read-out of agar diffusion tests.)
A further assay concerns Bacillus cereus. The assay can be described thus: Antibacterial activity against Bacillus cereus ATCC-14579 assessed as diameter of inhibition zone incubated for 24 hrs by disc diffusion method. The format is functional.
The subject of another assay is Serratia marcescens. The assay can be described thus: Antibacterial activity against Serratia marcescens IMRU-70 assessed as diameter of inhibition zone incubated for 24 hrs by disc diffusion method. The format is functional.
The subject of a further assay is Proteus mirabilis. The assay can be described thus: Antibacterial activity against Proteus mirabilis NTCC-289 assessed as diameter of inhibition zone incubated for 24 hrs by disc diffusion method. The format is functional.
A further assay deals with Aspergillus ochraceus. The assay can be described thus: Antifungal activity against Aspergillus ochraceus AUCC-230 assessed as diameter of inhibition zone incubated for 24 hrs by disc diffusion method. The format is functional.
The test system of a further assay is Penicillium chrysogenum. As to the kind of experiment: Antifungal activity against Penicillium chrysogenum AUCC-530 assessed as diameter of inhibition zone incubated for 24 hrs by disc diffusion method. The format is functional.
Assay [5] concerns Staphylococcus aureus. The assay can be described thus: Antibacterial activity against Staphylococcus aureus MTCC 96 assessed as bacterial growth inhibition incubated for 24 hrs by broth microdilution method. The format is functional.
Assay [6] deals with Staphylococcus aureus. The assay can be described thus: Antibacterial activity against Staphylococcus aureus MLS-16 MTCC 2940 assessed as bacterial growth inhibition incubated for 24 hrs by broth microdilution method. The format is functional.
In assay [7] the test system is Escherichia coli. As to the kind of experiment: Antibacterial activity against Escherichia coli ATCC 25922 assessed as diameter of inhibition zone at 50 mg/ml incubated for 24 hrs by paper disk diffusion method. The format is functional. The conditions noted are these: read-out: DIZ.
Another assay relates to Klebsiella pneumoniae. The assay can be described thus: Antimicrobial activity against Klebsiella pneumoniae ATCC 15380 assessed as diameter of inhibition zone at 20 mg/ml incubated for 24 hrs by disk diffusion method. The format is functional. The conditions noted are these: read-out: DIZ.
For a further assay, the system named is A549. As to the kind of experiment: Anticancer activity against human A549 cells assessed as reduction in cell viability incubated for 24 hrs by MTT assay. The format is functional, cell-based. The conditions noted are these: A549, 24 h. For orientation: Formazan colour is commonly taken as a measure of viable cells.
Assay [8] has as its target T2, Alpha-glucosidase (Saccharomyces cerevisiae S288c, UniProt P53341+P38158+P07265). The assay can be described thus: Inhibition of Saccharomyces cerevisiae alpha-glucosidase assessed as decrease in release of p-nitrophenol using pNPG as substrate incubated for 10 mins by spectroscopic analysis. The format is protein assay.
In a further assay the test system is HepG2. As to the kind of experiment: Anticancer activity against human HepG2 cells assessed as reduction in cell viability incubated for 48 hrs by MTT assay. The format is functional, cell-based. The note with it: HepG2, 48 h.
Assay [9] concerns the target T2, Alpha-glucosidase. As to the kind of experiment: Inhibition of Saccharomyces cerevisiae alpha-glucosidase preincubated for 5 mins followed by PNP-GLUC substrate addition and measured after 20 mins by spectroscopic analysis. The format is protein assay.
Another assay addresses Albumin (Bos taurus, UniProt P02769). The assay can be described thus: […] bovine serum albumin denaturation incubated for 23 mins by UV-Visible spectrophotometry.
Assay [10] in a line: Inhibition of porcine pancreatic alpha-amylase preincubated for 10 mins followed by substrate starch addition and measured after 10 mins by colorimetric analysis. Set-up: species or system Sus scrofa.
In the next assay the test system is Plasmodium falciparum. As to the kind of experiment: microbe, parasite or virus in culture.

Values after ≈ are worked out from the molar mass of the structure shown.

For orientation: EC50 means the concentration giving half of the maximal effect. The term MIC denotes the lowest concentration that inhibits growth of the organism. The term IC50 denotes the concentration at which inhibition is half-maximal.

Chain of Hydroxycarboxylic acid receptor 2 (Q8TDS4 whole entry): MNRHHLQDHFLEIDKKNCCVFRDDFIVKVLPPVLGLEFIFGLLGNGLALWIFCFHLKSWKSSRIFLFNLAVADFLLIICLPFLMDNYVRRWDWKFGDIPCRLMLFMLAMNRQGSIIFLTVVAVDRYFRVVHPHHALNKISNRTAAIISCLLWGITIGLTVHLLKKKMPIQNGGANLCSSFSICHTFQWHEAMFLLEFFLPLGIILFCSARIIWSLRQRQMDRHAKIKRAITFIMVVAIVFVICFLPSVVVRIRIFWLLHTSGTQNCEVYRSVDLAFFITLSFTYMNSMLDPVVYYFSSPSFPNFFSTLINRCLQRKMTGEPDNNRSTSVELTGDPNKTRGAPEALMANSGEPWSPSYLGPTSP
Chain of Albumin (P02769 whole entry): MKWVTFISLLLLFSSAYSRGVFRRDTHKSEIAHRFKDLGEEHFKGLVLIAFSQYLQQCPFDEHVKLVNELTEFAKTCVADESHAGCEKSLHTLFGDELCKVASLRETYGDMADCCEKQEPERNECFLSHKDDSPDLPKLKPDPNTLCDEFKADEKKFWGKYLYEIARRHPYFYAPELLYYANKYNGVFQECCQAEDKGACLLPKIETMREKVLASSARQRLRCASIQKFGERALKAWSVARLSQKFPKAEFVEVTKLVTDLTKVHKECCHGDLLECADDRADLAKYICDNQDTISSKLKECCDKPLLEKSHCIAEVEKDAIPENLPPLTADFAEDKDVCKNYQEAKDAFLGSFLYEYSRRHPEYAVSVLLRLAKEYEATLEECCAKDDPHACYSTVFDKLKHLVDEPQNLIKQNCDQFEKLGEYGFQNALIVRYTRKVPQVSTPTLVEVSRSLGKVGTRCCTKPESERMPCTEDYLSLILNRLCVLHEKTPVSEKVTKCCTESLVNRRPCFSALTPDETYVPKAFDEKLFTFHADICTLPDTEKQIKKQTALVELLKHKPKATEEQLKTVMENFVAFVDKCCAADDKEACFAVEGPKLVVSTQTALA

Take `CCCCc1cc(=O)oc2[nH]c(=S)[nH]c(=O)c12`: the figures for the concentration giving a half-maximal response (EC50) in [1] and in assay [2] were 0.22 µM and 0.051 µM, respectively.

Turning to `C1=COc2ncncc2C1`, the zone of inhibition at 100 µg/mL in the assay on Escherichia coli [3] turned out to be 13.1 mm.

On to `CCOC(=O)c1nc2c3c(ncn2n1)Oc1c(c(=O)oc2ccccc12)C3c1ccc(Cl)cc1` (stereo not given), for which the “diameter of the inhibition zone (DIZ)” value with Staphylococcus aureus [4] is recorded as 18 mm; in the assay with Bacillus cereus it was 19 mm; in the assay with Serratia marcescens, 21 mm; in the assay on Proteus mirabilis, 21 mm; in the assay with Aspergillus ochraceus, 15 mm; in the assay with Penicillium chrysogenum it was 13 mm.

As to `Cc1cc2c(c(=O)o1)C(c1ccccc1)c1c(Nc3cccc([N+](=O)[O-])c3)ncnc1O2` (stereo not given), the results for the MIC in the assay on Staphylococcus aureus [5] and in the assay on Staphylococcus aureus [6] were 7.8 µg/mL (≈ 18.2 µM) and 15.6 µg/mL (≈ 36.4 µM), respectively.

Take `O=c1[nH]c(-c2ccccc2)nc2c1C(c1ccc(Cl)cc1)C=C(c1cc3ccccc3oc1=O)O2` (stereo not given): the zone of inhibition at 50000 µg/mL in the assay on Escherichia coli [7] came to 10 mm.

For `Cc1ccc(C2C(C#N)=C(N)Oc3[nH]c(=O)[nH]c(=O)c32)o1` (stereo not given), in the assay on Klebsiella pneumoniae, the zone of inhibition at 20000 µg/mL was 16 mm.

Turning to `CCc1cc(=O)oc2[nH]c(=S)[nH]c(=O)c12`, the results for the EC50 in assay [1] and in [2] were 0.22 µM and 0.051 µM, respectively.

In the case of `CCOC(=O)C1=C(C)Oc2nc(C)n(Cc3cn(-c4ccc(C(C)=O)cc4)nn3)c(=O)c2C1c1ccccc1` (stereo not given), in the assay on A549, the 50% inhibitory concentration (IC50) stood at 6.74 µM.

On to `O=c1[nH]c(=O)c2c(CCCCCl)cc(=O)oc2[nH]1`, for which the half-maximal effective concentration (EC50) in [2] turned out to be 0.051 µM.

For the compound `COc1cc(/C=C/C(=O)C2=C(/C=C/c3ccc(O)c(OC)c3)Oc3[nH]c(=O)[nH]c(=O)c3C2c2cccc([N+](=O)[O-])c2)ccc1O` (stereo not given), on Alpha-glucosidase [8], the IC50 was 9.7 µM.

With `N#CCc1nc2c3c(ncn2n1)Oc1c(c(=O)oc2ccccc12)C3c1ccc(Cl)cc1` (stereo not given), the “diameter of the inhibition zone (DIZ)” value in the assay on Staphylococcus aureus [4] amounted to 18 mm; with Bacillus cereus, 19 mm; in the assay on Serratia marcescens it was 21 mm; in the assay on Proteus mirabilis, 21 mm; with Aspergillus ochraceus it was 15 mm; in the assay with Penicillium chrysogenum, 13 mm.

For the compound `COc1cc(/C=C/C(=O)CC(=O)/C=C/c2ccc(O)c(OC)c2)ccc1O` [CURCUMIN], the half-inhibitory concentration (IC50) on Alpha-glucosidase [8] was found to be 44.8 µM.

As to `O=c1oc2ccccc2c2c1C(c1ccc(Cl)cc1)c1c(ncn3nc(CCl)nc13)O2` (stereo not given), the “diameter of the inhibition zone (DIZ)” value in the assay with Staphylococcus aureus [4] came out at 18 mm; in the assay with Bacillus cereus, 19 mm; with Serratia marcescens, 21 mm; in the assay on Proteus mirabilis it was 21 mm; with Aspergillus ochraceus it was 15 mm; in the assay with Penicillium chrysogenum, 13 mm.

`COc1ccc(C2CC(=O)Oc3[nH]c(=O)[nH]c(=O)c32)cc1OC` (stereo not given): in the assay on HepG2, the half-inhibitory concentration (IC50) came out at 8.9 µM.

Regarding `Cc1cc2c(c(=O)o1)C(c1ccc(F)cc1)c1c(Nc3ccc([N+](=O)[O-])cc3)ncnc1O2` (stereo not given), the minimal inhibitory concentration (MIC) in the assay on Staphylococcus aureus [5] is 7.8 µg/mL (≈ 17.5 µM); in the assay on Staphylococcus aureus [6], 15.6 µg/mL (≈ 34.9 µM).

On to `O=C(C1=C(c2ccccc2O)Oc2[nH]c(=S)[nH]c(=O)c2C1c1ccccc1)N1CCCCC1` (stereo not given), for which, in the assay on Escherichia coli [3], the zone of inhibition at 100 µg/mL amounted to 13.1 mm. The concentration for half-maximal inhibition (IC50) was 7745 µM on Alpha-glucosidase [9], 19.9 µM on Albumin and 22.1 µM in [10].

As to `C=C[C@H]1CN2CC[C@H]1C[C@H]2[C@H](O)c1ccnc2ccc(OC)cc12` [QUININE], in the assay on Plasmodium falciparum, the 50% inhibitory concentration (IC50) amounted to 0.268 µg/mL (≈ 0.826 µM).

Turning to `CCCCc1cc(=O)oc2[nH]c(=O)[nH]c(=O)c12`, the EC50 in [1] turned out to be 0.22 µM.

The record behind these values is ChEMBL document CHEMBL5241112, “Insights into the recent progress in the medicinal chemistry of pyranopyrimidine analogs” (RSC Med Chem, 2022).
